Where two headings read alike, the source gives them in different places.
Tests used:
[1] = test system: MX-1 Human Breast Carcinoma Xenograft; details: i.v. qd x 1 (Taxol 36 mg/kg split dose, 1393 72.6 mg/kg)
Experimental: Antitumor compounds were formulated for an i.v. dosing regime (single i.v. bolus on qd x 1 schedule) prepared in the following vehicle: 5% ethanol, 5% Cremophor and 90% isotonic saline. […] Other compounds were similarly formulated. […] The dosing volume was 0.3 ml per 20 g mouse.
All vehicle control animals in the split dosing regimes were dosed twice intravenously with half the total volume being given separated by one hour. The study was terminated on Day 60.
(§1) The mean days of survival is the number of days after which a neoplasm reached a size of 2.0 g and the animal was euthanized. A complete response is obtained if the tumor is not palpable at the end of the study. A partial response is obtained if the tumor shrinks to a size smaller than its size on Day 1 of the study. […]

[2] = test system: A2780 Human Ovarian Carcinoma Xenografts
Experimental: Other antitumor compounds were similarly formulated. […] The dosing volume was 0.3 ml per 20 g mouse.
Female NCr-nude mice (implanted subcutaneously with 1 mm^3 A2780 ovarian carcinoma fragments in the flank) were sorted into treatment groups of five mice each, except for the Taxotere treatment group including six mice. […] Dosing was initiated on Day 1. The antitumor compounds were given i.v. at an estimated maximum tolerated dose (MTD) appropriate for each agent on a qd x 1 schedule (single administration of compound). […] Taxotere was given i.v. on a qd x 1 schedule at a dose of 70 mg/kg. The vehicle was administered i.v. to control mice in Group 1 on the qd x 1 schedule. Treatment groups are detailed in Table 7. The study was terminated on Day 60.
(§2) The results are summarized in Table 8 and include mean days of survival (MDS), number of toxic deaths, number of survivors, number of complete or partial responses, and number with stable disease. The mean days of survival is the number of days after which a neoplasm reached a size of 2.0 g and the animal was euthanized. A complete response is obtained if the tumor is not palpable at the end of the study. A partial response is obtained if the tumor shrinks to a size smaller than its size on Day 1 of the study.

[3] = test system: SKMES Human Lung Carcinoma Xenograft; details: 40 mg/kg single oral bolus Day 1, 6 mice/group, study end Day 60
Experimental: Antitumor compounds were formulated for oral administration over a wide dose range in a study to investigate the efficacy of this compound against the SKMES human lung cancer xenograft. The antitumor compounds were prepared in the following vehicle: 5% ethanol, 5% Cremophor and 90% isotonic saline.
Female Nu/Nu mice (6-8 weeks of age; implanted with 1 mm^3 SKMES lung carcinoma fragments in the flank) were sorted into treatment groups of six mice each. SKMES size ranges and group mean SKMES size ranges were 126-448 mg and 238-241 mg, respectively. […] Treatments were administered as a single oral bolus on Day 1, and the study was terminated on Day 60.
as §1, with “which a SKMES neoplasm reached” for “which a neoplasm reached”

[4] = test system: NCI-H1299 (H1299) carcinoma
Experimental: (§3) Two antitumor compounds were formulated for an i.v. dosing regime prepared in the following vehicle: 10% ethanol, 10% Cremophor and 80% isotonic saline. […] Other compounds were formulated similarly.
(§4) The MTDs for the antitumor compounds were calculated from earlier single dose data for mice receiving i.v. administration of these compounds. […] Vehicle control animals were dosed twice intravenously with half the total volume being given separated by one hour. The study was terminated at Day 60.
as §2, with “1” for “8”, “1.5” for “2.0”
(§5) A tumor scoring system was designed to provide a more quantitative ranking of efficacy (therapeutic potential) among the antitumor agents evaluated against the different human solid tumor xenografts. Each mouse in a study was given a score of from 1 to 10 at the end of the study. The scores can be summarized as follows:
(§6) The individual score for each mouse was averaged into a mean score for each treatment group. […]
The treatment protocol for the H1299 test was identical to the SK-MES test protocol. […]

[5] = test system: MX-1 Human Breast Carcinoma Xenograft; details: for MDS (n): days until tumor reached 1.5 g
Experimental: The antitumor compounds were prepared in the following vehicle: 5% ethanol, 5% Cremophor and 90% isotonic saline.
Female Nu/Nu mice (12-13 weeks of age; implanted with 1 mm^3 MX-1 human breast carcinoma fragments in the flank) were sorted into treatment groups of six mice each (MX-1 tumor size ranges and group mean MX-1 tumor size ranges were 56-138 mg and 68-74 mg, respectively). […] All treatments were administered as a single oral bolus on Day 1, and the study was terminated on Day 60.
The mean days of survival is the number of days after which an MX-1 neoplasm reached a size of 1.5 g and the animal was euthanized. A complete response is obtained if the tumor is not palpable at the end of the study. A partial response is obtained if the tumor shrinks to a size smaller than its size on Day 1 of the study.

SK-MES carcinoma = test: In vivo evaluation against SK-MES human lung carcinoma xenograft, i.v. (Example 11)
Experimental: as §3, §4
as §2, with “1” for “8”, “1.5” for “2.0”
as §5, §6

[6] = Taxol i.p. 15 mg/kg qd x 5, 5 mice, Day 60
[7] = i.v. qd x 1 (mg/kg: Taxol 24, 1351 75.3, 1401 107.6, 1418 107.6, Taxotere 70), Day 60
[8] = i.v. split dose qd x 1 at MTD (Taxol 36 mg/kg, 1393 72.1 mg/kg), 6 mice/group, 1.5 g cut-off, Day 60
[9] = i.v. split dose qd x 1 at MTD (Taxol 36 mg/kg, 1393 72.1 mg/kg), 6 mice/group, Day 60
[10] = i.v. split dose qd x 1 at MTD (Taxol 36 mg/kg, 1393 72.1 mg/kg), tumor score 1 to 10 per mouse, group mean
[11] = 28 mg/kg single oral bolus Day 1, 6 mice/group, study end Day 60
[12] = 40 mg/kg single oral bolus Day 1, 6 mice/group, study end Day 60

SMILES: CC(=O)O[C@H]1C(=O)[C@@]2(C)[C@H]([C@H](OC(=O)c3ccccc3)[C@]3(O)C[C@H](OC(=O)[C@H](O)[C@@H](NC(=O)c4ccccc4)c4ccccc4)C(C)=C1C3(C)C)[C@]1(OC(C)=O)CO[C@@H]1C[C@@H]2O [Taxol, paclitaxel, reference compound]
- Complete Response ([1]; 6 mice/group, Day 60): 0
- Partial Response ([1]; 6 mice/group, Day 60): 0
- Survivors ([1]; 6 mice/group, Day 60): 1
- Mean Score ([1]; tumor score 1 to 10, group mean): 1.2 ± 0.8
- toxicity ([2]; Taxol i.p. 15 mg/kg qd x 5): highly toxic
- Complete Response [2, 6]: 0
- Partial Response [2, 6]: 0
- Stable Disease [2, 6]: 0
- Survivors [2, 6]: 0
- Mean Score ([2]; Taxol i.p. 15 mg/kg qd x 5, tumor score 1 to 10, group mean): 0.6 ± 0.6
- MDS (n) ([2]; i.v. qd x 1 (mg/kg: Taxol 24, 1351 75.3, 1401 107.6, 1418 107.6, Taxotere 70), 2.0 g cut-off, Day 60): 21.9 ± 5.5 (5) days
- Complete Response [2, 7]: 0
- Partial Response [2, 7]: 0
- Survivors [2, 7]: 1
- Toxic Deaths [2, 7]: 0
- Mean Score ([2]; i.v. qd x 1 (mg/kg: Taxol 24, 1351 75.3, 1401 107.6, 1418 107.6, Taxotere 70), tumor score 1 to 10, group mean): 1.8 ± 0.4
- survival extension compared to Group 1 controls ([2]; i.v. qd x 1 (mg/kg: Taxol 24, 1418 107.6, Taxotere 70)): 87%
- % Total Response [3]: 0%
- Complete Responses [3]: 0
- Partial Responses [3]: 0
- Stable Disease [3]: 0
- Survivors [3]: 0
- Toxic Deaths [3]: 0
- MDS (n) ([3]; days until tumor reached 2.0 g): 13.2 ± 1.4 (6) days
- survival extension compared to vehicle-treated animals ([4]; Taxol 36 mg/kg i.v.): 10%
- MDS (n) [4, 8]: 27.0 ± 4.6 (5) days
- Complete Response [4, 9]: 0
- Stable Disease [4, 9]: 0
- Survivors [4, 9]: 1
- Toxic Deaths [4, 9]: 0
- Mean Score [4, 10]: 2.7 ± 1.3
- Complete Responses [5, 11]: 0
- Partial Responses [5, 11]: 0
- Stable Disease [5, 11]: 1
- Survivors [5, 11]: 1
- Toxic Deaths [5, 11]: 0
- MDS (n) [5, 11]: 23.1 ± 1.7 (5) days
- Complete Responses [5, 12]: 0
- Partial Responses [5, 12]: 1
- Stable Disease [5, 12]: 0
- Survivors [5, 12]: 1
- Toxic Deaths [5, 12]: 0
- MDS (n) [5, 12]: 23.2 ± 1.3 (5) days
- Stable Disease ([5]; MX-1, single oral bolus, Taxol 40 and 28 mg/kg groups together, Day 60): one
- Partial Response ([5]; MX-1, single oral bolus, Taxol 40 and 28 mg/kg groups together, Taxotere 100 and 70 mg/kg groups together, Day 60): One
- survival extension compared to vehicle controls (SK-MES carcinoma; Taxol 36 mg/kg i.v.): 30%
- tolerability (SK-MES carcinoma; i.v. at MTD): well tolerated
- MDS (n) (SK-MES carcinoma; [8]): 16 ± 2.0 (6) days
- Complete Response (SK-MES carcinoma; [9]): 0
- Partial Response (SK-MES carcinoma; [9]): 0
- Stable Disease (SK-MES carcinoma; [9]): 0
- Survivors (SK-MES carcinoma; [9]): 0
- Toxic Deaths (SK-MES carcinoma; [9]): 0
- Mean Score (SK-MES carcinoma; [10]): 1.3 ± 0.3

Reference: patent EP1285918A1, “C7 Ester substituted taxanes as antitumor agents” (Florida State University Research Foundation, Inc., priority 2001, dated 2003)
